What all share (conditions): stereoisomer not certain
The nature of data set [1]: RP, Waters CORTECS T3, 100 × 2.1 mm, 2.7 µm, 0.2 mL/min, estimated dead time 1.1 min; A: water + 0.045% formic acid + 0.11% ammonium hydroxide, pH 7; B: methanol; gradient (min/%B) 0/5 5/5 25/95 25.1/100 35/100 35.1/5 45/5.
Data set [2] is described as follows: HILIC, Waters XBridge BEH Amide, 100 × 2.1 mm, 2.5 µm, 0.5 mL/min, estimated dead time 0.44 min; A: water + 0.1% acetic acid + 10 mM ammonium acetate, pH 4; B: 5% water + 95% acetonitrile + 0.1% acetic acid + 10 mM ammonium acetate, pH 4; gradient (min/%B) 0/95 5/95 20/57 25/57 30/95 40/95.
Data set [3] is described as follows: RP, Waters ACQUITY UPLC BEH C18, 100 × 2.1 mm, 1.7 µm, 0.1 mL/min, estimated dead time 2.2 min; A: water + 0.045% formic acid + 0.11% ammonium hydroxide, pH 7; B: methanol; gradient (min/%B) 0/5 5/5 25/95 25.1/100 35/100 35.1/5 45/5.
Data set [4] is described as follows: HILIC, Merck SeQuant ZIC-HILIC, 150 × 2.1 mm, 5 µm, 0.75 mL/min, estimated dead time 0.44 min; A: water + 10 mM ammonium formate, pH 6; B: 5% water + 95% acetonitrile + 10 mM ammonium formate, pH 6; gradient (min/%B) 0/95 5/95 20/57 25/57 30/95 40/95.
Data set [5] can be described thus: RP, Waters ACQUITY UPLC BEH C18, 100 × 2.1 mm, 1.7 µm, 0.2 mL/min, estimated dead time 1.1 min; A: water + 0.1% formic acid, pH 3; B: methanol + 0.1% formic acid, pH 3; gradient (min/%B) 0/5 5/5 25/100 30/100 30.1/5 35/5.
The nature of data set [6]: RP, Waters CORTECS T3, 100 × 2.1 mm, 2.7 µm, 0.3 mL/min, estimated dead time 0.73 min; A: water + 0.1% formic acid, pH 3; B: methanol + 0.1% formic acid, pH 3; gradient (min/%B) 0/0 5/0 25/100 30/100 30.1/0 35/0.
The nature of data set [7]: RP, Waters CORTECS T3, 100 × 2.1 mm, 2.7 µm, 0.3 mL/min, estimated dead time 0.73 min; A: water + 0.1% formic acid, pH 3; B: methanol + 0.1% formic acid, pH 3; gradient (min/%B) 0/0 1/0 6/5 30/100 35/100 35.1/0 40/0.
Data set [8] in a line: RP, Waters CORTECS T3, 100 × 2.1 mm, 2.7 µm, 0.2 mL/min, estimated dead time 1.1 min; A: water + 0.1% formic acid, pH 3; B: methanol + 0.1% formic acid, pH 3; gradient (min/%B) 0/0 1/0 6/5 30/100 35/100 35.1/0 40/0.
Data set [9] in a line: RP, Waters CORTECS T3, 100 × 2.1 mm, 2.7 µm, 0.2 mL/min, estimated dead time 1.1 min; A: water + 0.1% formic acid, pH 3; B: methanol + 0.1% formic acid, pH 3; gradient (min/%B) 0/5 5/5 25/95 25.1/100 35/100 35.1/5 45/5.
The nature of data set [10]: RP, Waters ACQUITY UPLC BEH C18, 100 × 2.1 mm, 1.7 µm, 0.1 mL/min, estimated dead time 2.2 min; A: water + 0.1% formic acid, pH 3; B: methanol + 0.1% formic acid, pH 3; gradient (min/%B) 0/5 5/5 25/95 25.1/100 35/100 35.1/5 45/5.
Data set [11] can be described thus: HILIC, Merck SeQuant ZIC-HILIC, 150 × 2.1 mm, 5 µm, 0.75 mL/min, estimated dead time 0.44 min; A: water + 0.1% acetic acid + 10 mM ammonium acetate, pH 4; B: 5% water + 95% acetonitrile + 0.1% acetic acid + 10 mM ammonium acetate, pH 4; gradient (min/%B) 0/95 5/95 20/57 25/57 30/95 40/95.
A short description of data set [12]: RP, Waters CORTECS T3, 100 × 2.1 mm, 2.7 µm, 0.15 mL/min, estimated dead time 1.5 min; A: water + 0.1% formic acid, pH 3; B: methanol + 0.1% formic acid, pH 3; gradient (min/%B) 0/5 5/5 25/95 25.1/100 35/100 35.1/5 45/5.
Data set [13] is described as follows: RP, Waters ACQUITY UPLC BEH C18, 100 × 2.1 mm, 1.7 µm, 0.2 mL/min, estimated dead time 1.1 min; A: water + 0.025% formic acid + 20 mM ammonium acetate + 0.055% ammonium hydroxide, pH 7; B: methanol; gradient (min/%B) 0/5 5/5 25/100 30/100 30.1/5 35/5.
A short description of data set [14]: RP, Waters CORTECS T3, 100 × 2.1 mm, 2.7 µm, 0.25 mL/min, estimated dead time 0.88 min; A: water + 0.1% formic acid, pH 3; B: methanol + 0.1% formic acid, pH 3; gradient (min/%B) 0/5 5/5 25/95 25.1/100 35/100 35.1/5 45/5.
Data set [15] in a line: RP, Thermo Scientific Hypercarb, 150 × 2.1 mm, 5 µm, 0.1 mL/min, estimated dead time 3.3 min; A: water + 0.1% formic acid, pH 3; B: methanol + 0.1% formic acid, pH 3; gradient (min/%B) 0/5 5/5 20/100 35/100 35.1/5 45/5.
Data set [16] in a line: RP, Waters ACQUITY UPLC BEH C18, 100 × 2.1 mm, 1.7 µm, 0.1 mL/min, estimated dead time 2.2 min; A: water + 0.1% formic acid, pH 3; B: methanol + 0.1% formic acid, pH 3; gradient (min/%B) 0/5 5/5 25/100 30/100 30.1/5 35/5.
The nature of data set [17]: RP, Waters CORTECS T3, 100 × 2.1 mm, 2.7 µm, 0.3 mL/min, estimated dead time 0.73 min; A: water + 0.1% formic acid, pH 3; B: methanol + 0.1% formic acid, pH 3; gradient (min/%B) 0/5 5/5 25/100 30/100 30.1/5 35/5.
Data set [18] can be described thus: RP, Waters CORTECS T3, 100 × 2.1 mm, 2.7 µm, 0.1 mL/min, estimated dead time 2.2 min; A: water + 0.1% formic acid, pH 3; B: methanol + 0.1% formic acid, pH 3; gradient (min/%B) 0/5 5/5 25/95 25.1/100 35/100 35.1/5 45/5.

On to `CCCCCCCCCCCCCCCC(=O)OCC(COP(=O)(O)OCCN)OC(=O)CCCCCCCCCCCCCCC` (racemic) [1,2-DIPALMITOYL-RAC-GLYCERO-3-PHOSPHOETHANOLAMINE], for which the LC retention time in data set [1] was 28.7 min; in data set [2] it was 6.05 min; in data set [3], 36.9 min; in data set [4], 7.77 min.
Turning to `Nc1ccn(C2CC(O)C(COP(=O)(O)O)O2)c(=O)n1` (stereo not given) [2'-DEOXYCYTIDINE 5'-MONOPHOSPHATE], the LC retention time is 1.38 min in data set [5]; 0.89 min in data set [6]; 0.92 min in data set [7]; 1.35 min in [8]; 14.5 min in data set [4]; 2.67 min in data set [9]. The LC retention time in [10] was 2.67 min.
On to `C=CC1=C(C)C(=Cc2[nH]c(Cc3[nH]c(C=C4NC(=O)C(C)=C4C=C)c(C)c3CCC(=O)O)c(CCC(=O)O)c2C)NC1=O` [BILIRUBIN], for which the LC retention time in [1] was 24.4 min; in data set [3], 26.9 min; in data set [4], 1.06 min; in data set [11], 1.32 min.
Regarding `CC(CCC(=O)O)C1CCC2C3C(O)CC4CC(O)CCC4(C)C3CC(O)C12C` (stereo not given) [CHOLATE], the LC retention time in data set [12] was 24.7 min; in data set [5], 22.9 min; in data set [6] it was 21.9 min; in data set [13] it was 19.6 min; in [7] it was 25.4 min; in data set [9], 29.8 min. For the same compound, the LC retention time in [14] was 22.9 min.
Regarding `Nc1ccn(C2OC(COP(=O)(O)OP(=O)(O)O)C(O)C2O)c(=O)n1` (stereo not given) [CYTIDINE 5'-DIPHOSPHATE], the results for the LC retention time in [12], in data set [6] and in [8] were 1.98 min, 0.89 min and 1.35 min, respectively.
With `O=C([O-])[C@H](O)[C@@H](O)[C@H](O)[C@H](O)CO` [D-GLUCONATE], the LC retention time in data set [2] is 17 min; in data set [4], 13 min; in data set [9] it was 2.58 min; in data set [11], 12.9 min.
Take `NC(C(=O)O)C(O)C(O)C(O)CO` (stereo not given) [GLUCOSAMINATE]: the LC retention time was 4.77 min in data set [15]; 14.7 min in data set [2]; 14.3 min in [4]; 2.45 min in data set [9]; 14.2 min in data set [11].
Turning to `CCOC(OCC)C(O)COP(=O)(O)O` (stereo not given) [GLYCERALDEHYDE 3-PHOSPHATE DIETHYL ACETAL], the LC retention time was 7.38 min in data set [12]; 1.41 min in data set [13]; 6.25 min in data set [7]; 8.23 min in data set [8]; 12.2 min in [9].
Take `O=c1[nH]cnc2nc[nH]c12` [HYPOXANTHINE]: the LC retention time in data set [16] was 2.8 min; in data set [2], 3.97 min; in data set [13], 1.38 min; in data set [4], 3.94 min; in [17], 1.33 min; in data set [18] it was 2.72 min.
On to `N[C@@H](CS(=O)(=O)O)C(=O)O` [L-CYSTEIC ACID], for which the LC retention time in [15] is 19.4 min; in [2], 13.4 min; in data set [4], 13.4 min; in data set [9], 2.49 min; in data set [11], 13.4 min.
Consider `CC(=O)NC(CC(N)=O)C(=O)O` [N-ALPHA-ACETYL-L-ASPARAGINE], for which the LC retention time is 1.38 min in [5]; 12.1 min in [2]; 0.89 min in data set [6]; 1.35 min in data set [8]; 2.67 min in [9]; 2.7 min in data set [10]. In addition, the LC retention time in data set [11] was 11.8 min; in data set [14], 1.08 min.
In the case of `O=C(O)CCCCCCCCCCCO` [OMEGA-HYDROXYDODECANOIC ACID], the LC retention time in data set [12] is 22.2 min; in [2] it was 1.1 min; in [13], 16.3 min; in data set [7], 22.4 min; in data set [14], 20.4 min.
As to `O=C(O)C1(O)CC(O)C(O)C(O)C1` (stereo not given) [QUINATE], the LC retention time in data set [5] is 1.38 min; in [6] it was 0.89 min; in data set [8] it was 1.35 min; in [4], 12.3 min; in [9], 2.64 min; in [10], 2.67 min. Moreover, in [11], the LC retention time was 12.2 min.
For `NCCS(=O)(=O)O` [TAURINE], the LC retention time in [2] is 11.4 min; in data set [4] it was 12.3 min; in [9] it was 2.48 min; in data set [11], 12 min.
For the compound `O=c1ccn(C2OC(COP(=O)(O)O)C(O)C2O)c(=O)[nH]1` (stereo not given) [URIDINE-5-MONOPHOSPHATE], the LC retention time in data set [2] is 14 min; in data set [6], 0.89 min; in data set [7], 0.92 min; in data set [8] it was 1.35 min; in data set [9], 2.67 min; in [10], 2.7 min. Besides, the LC retention time was 13.6 min in data set [11] and 1.08 min in data set [14].
Take `O=c1ccn(C2OC(CO)C(O)C2O)c(=O)[nH]1` (stereo not given) [URIDINE]: the values for the LC retention time in [12], in data set [2] and in [11] were 1.83 min, 3.95 min and 4.54 min, respectively.

Values taken from the RepoRT retention time repository (doi:10.1016/j.jchromb.2020.122105).
